Data taken from the supplement of paper PMC10307832.

Key:
Test in all cases: relative viability (nuclei count vs DMSO), 5 days (fraction); higher = more cells survive
[1] = compound: CCC1=CN=CN=C1N2CCN(CC2)CC3=NC4=C(N3)C=C(C=C4)C(F)(F)F + O=C(c1cc(Cc2n[nH]c(=O)c3ccccc23)ccc1F)N1CCN(C(=O)C2CC2)CC1 [Olaparib] (partner 8 µM)
Method in brief: (§1)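 Relative viability equals treated-well nuclei counts divided by vehicle-well nuclei counts. Counts came from 4× images of lung cancer cell lines grown in 1536-well plates for 5 days after pin-tool dosing on the day after seeding. Dosing used one drug alone or a fixed anchor-drug dose plus five library-drug doses (not always all listed) in √10 steps, and values are medians of duplicate plates.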

[2] = compound: CCn1c(-c2nonc2N)nc2cnc(Oc3cccc(NC(=O)c4ccc(OCCN5CCOCC5)cc4)c3)cc21 + CS(=O)(=O)N1CCN(Cc2cc3nc(-c4cccc5[nH]ncc45)nc(N4CCOCC4)c3s2)CC1 [Pictilisib] (partner 1 µM)
Method in brief: as §1

[3] = compound: CCn1c(-c2nonc2N)nc2cnc(Oc3cccc(NC(=O)c4ccc(OCCN5CCOCC5)cc4)c3)cc21 + Cc1nc(Nc2ncc(C(=O)Nc3c(C)cccc3Cl)s2)cc(N2CCN(CCO)CC2)n1 [Dasatinib] (partner 0.075 µM)
Method in brief: as §1

[4] = compound: CCn1c(-c2nonc2N)nc2cnc(Oc3cccc(NC(=O)c4ccc(OCCN5CCOCC5)cc4)c3)cc21 + NC(=O)Nc1cc(-c2cccc(F)c2)sc1C(=O)N[C@H]1CCCNC1 [AZD7762] (partner 0.2 µM)
Method in brief: as §1

## NCI-H2347
[1]; first compound 0.04 µM
  relative viability: 0.6
[1]; first compound 0.1265 µM
  relative viability: 0.654
[1]; first compound 0.4 µM
  relative viability: 0.603
[1]; first compound 1.265 µM
  relative viability: 0.59
[1]; first compound 4 µM
  relative viability: 0.575
[2]; first compound 0.04 µM
  relative viability: 0.94
[2]; first compound 0.1265 µM
  relative viability: 0.648
[2]; first compound 0.4 µM
  relative viability: 1.05
[2]; first compound 1.265 µM
  relative viability: 0.556
[2]; first compound 4 µM
  relative viability: 0.563
[3]; first compound 0.04 µM
  relative viability: 0.402
[3]; first compound 0.1265 µM
  relative viability: 0.436
[3]; first compound 0.4 µM
  relative viability: 0.286
[3]; first compound 1.265 µM
  relative viability: 0.374
[3]; first compound 4 µM
  relative viability: 0.349
[4]; first compound 0.04 µM
  relative viability: 0.951
[4]; first compound 0.1265 µM
  relative viability: 0.766
[4]; first compound 0.4 µM
  relative viability: 0.641
[4]; first compound 1.265 µM
  relative viability: 0.378
[4]; first compound 4 µM
  relative viability: 0.413

## NCI-H2405
[1]; first compound 0.04 µM
  relative viability: 0.898
[1]; first compound 0.1265 µM
  relative viability: 0.874
[1]; first compound 0.4 µM
  relative viability: 0.821
[1]; first compound 4 µM
  relative viability: 0.919
[2]; first compound 0.04 µM
  relative viability: 0.454
[2]; first compound 0.1265 µM
  relative viability: 0.23
[2]; first compound 0.4 µM
  relative viability: 0.15
[2]; first compound 1.265 µM
  relative viability: 0.261
[2]; first compound 4 µM
  relative viability: 0.171
[3]; first compound 0.04 µM
  relative viability: 0.239
[3]; first compound 0.1265 µM
  relative viability: 0.166
[3]; first compound 0.4 µM
  relative viability: 0.158
[3]; first compound 1.265 µM
  relative viability: 0.135
[3]; first compound 4 µM
  relative viability: 0.139
[4]; first compound 0.04 µM
  relative viability: 0.446
[4]; first compound 0.1265 µM
  relative viability: 0.18
[4]; first compound 0.4 µM
  relative viability: 0.14
[4]; first compound 1.265 µM
  relative viability: 0.144
[4]; first compound 4 µM
  relative viability: 0.137

## NCI-H3122
[1]; first compound 0.04 µM
  relative viability: 0.663
[1]; first compound 0.1265 µM
  relative viability: 0.55
[1]; first compound 0.4 µM
  relative viability: 0.551
[1]; first compound 1.265 µM
  relative viability: 0.54
[1]; first compound 4 µM
  relative viability: 0.56
[2]; first compound 0.04 µM
  relative viability: 0.879
[2]; first compound 0.1265 µM
  relative viability: 0.672
[2]; first compound 0.4 µM
  relative viability: 0.516
[2]; first compound 1.265 µM
  relative viability: 0.674
[2]; first compound 4 µM
  relative viability: 0.542
[3]; first compound 0.04 µM
  relative viability: 0.955
[3]; first compound 0.1265 µM
  relative viability: 0.82
[3]; first compound 0.4 µM
  relative viability: 0.651
[3]; first compound 1.265 µM
  relative viability: 0.554
[3]; first compound 4 µM
  relative viability: 0.525
[4]; first compound 0.04 µM
  relative viability: 1.06
[4]; first compound 0.1265 µM
  relative viability: 0.984
[4]; first compound 0.4 µM
  relative viability: 0.939
[4]; first compound 1.265 µM
  relative viability: 0.871
[4]; first compound 4 µM
  relative viability: 0.739

## PC-3 [JPC-3]
[1]; first compound 0.1265 µM
  relative viability: 1.02
[1]; first compound 0.4 µM
  relative viability: 1.13
[1]; first compound 1.265 µM
  relative viability: 1.02
[1]; first compound 4 µM
  relative viability: 0.977
[2]; first compound 0.04 µM
  relative viability: 0.919
[2]; first compound 0.1265 µM
  relative viability: 0.775
[2]; first compound 0.4 µM
  relative viability: 0.68
[2]; first compound 1.265 µM
  relative viability: 0.723
[2]; first compound 4 µM
  relative viability: 0.714
[3]; first compound 0.04 µM
  relative viability: 0.981
[3]; first compound 0.1265 µM
  relative viability: 0.902
[3]; first compound 0.4 µM
  relative viability: 0.605
[3]; first compound 1.265 µM
  relative viability: 0.728
[3]; first compound 4 µM
  relative viability: 0.648
[4]; first compound 0.04 µM
  relative viability: 0.892
[4]; first compound 0.1265 µM
  relative viability: 0.889
[4]; first compound 0.4 µM
  relative viability: 0.828
[4]; first compound 1.265 µM
  relative viability: 0.56
[4]; first compound 4 µM
  relative viability: 0.658

## PC-14
[1]; first compound 0.04 µM
  relative viability: 0.231
[1]; first compound 0.1265 µM
  relative viability: 0.275
[1]; first compound 0.4 µM
  relative viability: 0.29
[1]; first compound 1.265 µM
  relative viability: 0.25
[1]; first compound 4 µM
  relative viability: 0.261
[2]; first compound 0.04 µM
  relative viability: 1.06
[2]; first compound 0.1265 µM
  relative viability: 0.708
[2]; first compound 0.4 µM
  relative viability: 0.751
[2]; first compound 1.265 µM
  relative viability: 0.619
[2]; first compound 4 µM
  relative viability: 0.666
[3]; first compound 0.04 µM
  relative viability: 0.221
[3]; first compound 0.1265 µM
  relative viability: 0.173
[3]; first compound 0.4 µM
  relative viability: 0.174
[3]; first compound 1.265 µM
  relative viability: 0.158
[3]; first compound 4 µM
  relative viability: 0.115
[4]; first compound 0.04 µM
  relative viability: 0.334
[4]; first compound 0.1265 µM
  relative viability: 0.323
[4]; first compound 0.4 µM
  relative viability: 0.218
[4]; first compound 1.265 µM
  relative viability: 0.215
[4]; first compound 4 µM
  relative viability: 0.232

## RERF-LC-KJ
[1]; first compound 0.04 µM
  relative viability: 0.975
[1]; first compound 0.1265 µM
  relative viability: 0.95
[1]; first compound 0.4 µM
  relative viability: 0.954
[1]; first compound 1.265 µM
  relative viability: 0.849
[1]; first compound 4 µM
  relative viability: 0.885
[2]; first compound 0.04 µM
  relative viability: 0.541
[2]; first compound 0.1265 µM
  relative viability: 0.452
[2]; first compound 0.4 µM
  relative viability: 0.516
[2]; first compound 1.265 µM
  relative viability: 0.476
[2]; first compound 4 µM
  relative viability: 0.377
[3]; first compound 0.04 µM
  relative viability: 0.88
[3]; first compound 0.1265 µM
  relative viability: 0.746
[3]; first compound 0.4 µM
  relative viability: 0.462
[3]; first compound 1.265 µM
  relative viability: 0.43
[3]; first compound 4 µM
  relative viability: 0.347
[4]; first compound 0.04 µM
  relative viability: 0.941
[4]; first compound 0.1265 µM
  relative viability: 0.956
[4]; first compound 0.4 µM
  relative viability: 0.448
[4]; first compound 1.265 µM
  relative viability: 0.298
[4]; first compound 4 µM
  relative viability: 0.538
